Reference: patent US8754069B2, “Betulinic acid derivatives with antiviral activity” (priority 2011, dated 2014)

Tested on: recombinant NL4-3 virus (NLRluc, Renilla luciferase in nef, Gag P373S) in MT-2 cells
Experiment: HIV Cell Culture Assay (luciferase reporter virus in MT-2 cells)
Assay type: cell-based
Settings: NL43, 96 h, read-out: 10% FBS (EC50, uM)
Procedure: HIV Cell Culture Assay—MT-2 cells and 293T cells were obtained from the NIH AIDS Research and Reference Reagent Program. MT-2 cells were propagated in RPMI 1640 media supplemented with 10% heat inactivated fetal bovine serum, […]. The 293T cells were propagated in DMEM media supplemented with 10% heat inactivated fetal bovine serum (FBS), 100 units/ml penicillin G and 100 μg/ml streptomycin. The proviral DNA clone of NL4-3 was obtained from the NIH AIDS Research and Reference Reagent Program. A recombinant NL4-3 virus, in which a section of the nef gene from NL4-3 was replaced with the Renilla luciferase gene, was used as a reference virus. In addition, residue Gag P373 was converted to P373S. Briefly, the recombinant virus was prepared by transfection of the altered proviral clone of NL4-3. Transfections were performed in 293T cells using LipofectAMINE PLUS from Invitrogen (Carlsbad, Calif.), according to manufacturer's instruction. The virus was titered in MT-2 cells using luciferase enzyme activity as a marker. Luciferase was quantitated using the Dual Luciferase kit from Promega (Madison, Wis.), with modifications to the manufacturer's protocol. The diluted Passive Lysis solution was pre-mixed with the re-suspended Luciferase Assay Reagent and the re-suspended Stop & Glo Substrate (2:1:1 ratio). Fifty (50) μL of the mixture was added to each aspirated well on assay plates and luciferase activity was measured immediately on a Wallac TriLux (Perkin-Elmer). Antiviral activities of inhibitors toward the recombinant virus were quantified by measuring luciferase activity in cells infected for 4-days with NLRluc recombinants in the presence serial dilutions of the inhibitor. Table 1 is the key for the data in Table 2. Results

Compound C=C(C)[C@@H]1CC[C@]2(NCCN(C)C)CC[C@]3(C)[C@H](CC[C@@H]4[C@@]5(C)CC[C@H](OC(=O)CC(C)(C)C(=O)O)C(C)(C)[C@@H]5CC[C@]43C)[C@@H]12 [Example 10, 4-(((1R,3aS,5aR,5bR,7aR,9S,11aR,13aR,13bR)-3a-((2-(dimethylamino)ethyl)amino)-5a,5b,8,8,11a-pentamethyl-1-(prop-1-en-2-yl)icosahydro-1H-cyclopenta[a]chrysen-9-yl)oxy)-2,2-dimethyl-4-oxobutanoic acid] has an EC50 of less than 0.1 µM.
C=C(C)[C@@H]1CC[C@]2(NCCN3CCS(=O)(=O)CC3)CC[C@]3(C)[C@H](CC[C@@H]4[C@@]5(C)CC[C@H](OC(=O)CC(C)(C)C(=O)O)C(C)(C)[C@@H]5CC[C@]43C)[C@@H]12 [Example 2, 4-(((1R,3aS,5aR,5bR,7aR,9S,11aR,13aR,13bR)-3a-((2-(1,1-dioxido-4-thiomorpholinyl)ethyl)amino)-1-isopropenyl-5a,5b,8,8,11a-pentamethylicosahydro-1H-cyclopenta[a]chrysen-9-yl)oxy)-2,2-dimethyl-4-oxobutanoic acid] was tested, and the EC50 was less than 0.1 µM.
CC(C)[C@@H]1CC[C@]2(NCCN3CCS(=O)(=O)CC3)CC[C@]3(C)[C@H](CC[C@@H]4[C@@]5(C)CC[C@H](OC(=O)CC(C)(C)CC(=O)O)C(C)(C)[C@@H]5CC[C@]43C)[C@@H]12 [Example 7, 5-(((1S,3aS,5aR,5bR,7aR,9aR,9S,11aR,3aR,13bR)-3a-((2-(1,1-dioxido-4-thiomorpholinyl)ethyl)amino)-1-isopropyl-5a,5b,8,8,11a-pentamethylicosahydro-1H-cyclopenta[a]chrysen-9-yl)oxy)-3,3-dimethyl-5-oxopentanoic acid] was tested, and the EC50 was less than 0.1 µM.
With C=C(C)[C@@H]1CC[C@]2(NCCN3CCS(=O)(=O)CC3)CC[C@]3(C)[C@H](CC[C@@H]4[C@@]5(C)CC[C@H](OC(=O)CC(C)(C)CC(=O)O)C(C)(C)[C@@H]5CC[C@]43C)[C@@H]12 [Example 3, 5-(((1R,3aS,5aR,5bR,7aR,9aR,9S,11aR,3aR,13bR)-3a-((2-(1,1-dioxido-4-thiomorpholinyl)ethyl)amino)-1-isopropenyl-5a,5b,8,8,11a-pentamethylicosahydro-1H-cyclopenta[a]chrysen-9-yl)oxy)-3,3-dimethyl-5-oxopentanoic acid] the EC50 was less than 0.1 µM.
C=C(C)[C@@H]1CC[C@]2(NCCN3CCOCC3)CC[C@]3(C)[C@H](CC[C@@H]4[C@@]5(C)CC[C@H](OC(=O)CC(C)(C)C(=O)O)C(C)(C)[C@@H]5CC[C@]43C)[C@@H]12 [Example 5, 2,2-dimethyl-4-oxo-4-((1R,3aS,5aR,5bR,7aR,9S,11aR,13aR,13bR)-5a,5b,8,8,11a-pentamethyl-3a-(2-morpholinoethylamino)-1-(prop-1-en-2-yl)icosahydro-1H-cyclopenta[a]chrysen-9-yloxy)butanoic acid] showed an EC50 of less than 0.1 µM.
With CC(C)[C@@H]1CC[C@]2(NCCN3CCS(=O)(=O)CC3)CC[C@]3(C)[C@H](CC[C@@H]4[C@@]5(C)CC[C@H](OC(=O)CC(C)(C)C(=O)O)C(C)(C)[C@@H]5CC[C@]43C)[C@@H]12 [Example 6, 4-(((1S,3aS,5aR,5bR,7aR,9S,11aR,13aR,13bR)-3a-((2-(1,1-dioxido-4-thiomorpholinyl)ethyl)amino)-1-isopropyl-5a,5b,8,8,11a-pentamethylicosahydro-1H-cyclopenta[a]chrysen-9-yl)oxy)-2,2-dimethyl-4-oxobutanoic acid] the EC50 was less than 0.1 µM.
Work on C=C(C)[C@@H]1CC[C@]2(NCCN3CCS(=O)(=O)CC3)CC[C@]3(C)[C@H](CC[C@@H]4[C@@]5(C)CC[C@H](OC(=O)C(C)(C)CC(=O)O)C(C)(C)[C@@H]5CC[C@]43C)[C@@H]12 [Example 1, 4-(((1R,3aS,5aR,5bR,7aR,9S,11aR,13aR,13bR)-3a-((2-(1,1-dioxido-4-thiomorpholinyl)ethyl)amino)-1-isopropenyl-5a,5b,8,8,11a-pentamethylicosahydro-1H-cyclopenta[a]chrysen-9-yl)oxy)-3,3-dimethyl-4-oxobutanoic acid] yielded an EC50 of less than 0.1 µM.
With C=C(C)[C@@H]1CC[C@]2(NCCN3CCC(S(C)(=O)=O)CC3)CC[C@]3(C)[C@H](CCC4[C@@]5(C)CC[C@H](OC(=O)CC(C)(C)C(=O)O)C(C)(C)[C@@H]5CC[C@]43C)[C@@H]12 (stereo partly drawn) [Example 9, 2,2-dimethyl-4-oxo-4-(((1R,3aS,5aR,5bR,7aR,9S,11aR,13aR,13bR)-5a,5b,8,8,11a-pentamethyl-3a-((2-(4-(methylsulfonyl)piperidin-1-yl)ethyl)amino)-1-(prop-1-en-2-yl)icosahydro-1H-cyclopenta[a]chrysen-9-yl)oxy)butanoic acid] the EC50 was less than 0.1 µM.
For C=C(C)[C@@H]1CC[C@]2(NCCN3CCC(S(C)(=O)=O)CC3)CC[C@]3(C)[C@H](CC[C@@H]4[C@@]5(C)CC[C@H](OC(=O)C(C)(C)CC(=O)O)C(C)(C)[C@@H]5CC[C@]43C)[C@@H]12 [Example 8, 3,3-dimethyl-4-oxo-4-(((1R,3aS,5aR,5bR,7aR,9S,11aR,13aR,13bR)-5a,5b,8,8,11a-pentamethyl-3a-((2-(4-(methylsulfonyl)piperidin-1-yl)ethyl)amino)-1-(prop-1-en-2-yl)icosahydro-1H-cyclopenta[a]chrysen-9-yl)oxy)butanoic acid], the EC50 was less than 0.1 µM.
In the case of C=C(C)[C@@H]1CC[C@]2(NCCN3CCN(S(C)(=O)=O)CC3)CC[C@]3(C)[C@H](CC[C@@H]4[C@@]5(C)CC[C@H](OC(=O)CC(C)(C)C(=O)O)C(C)(C)[C@@H]5CC[C@]43C)[C@@H]12 [Example 11, 2,2-dimethyl-4-oxo-4-(((1R,3aS,5aR,5bR,7aR,9S,11aR,11bR,13aR,13bR)-5a,5b,8,8,11a-pentamethyl-3a-((2-(4-(methylsulfonyl)piperazin-1-yl)ethyl)amino)-1-(prop-1-en-2-yl)icosahydro-1H-cyclopenta[a]chrysen-9-yl)oxy)butanoic acid], the EC50 is reported as less than 0.1 µM.
Compound C=C(C)[C@@H]1CC[C@]2(NCCN3CCOCC3)CC[C@]3(C)[C@H](CC[C@@H]4[C@@]5(C)CC[C@H](OC(=O)C(C)(C)CC(=O)O)C(C)(C)[C@@H]5CC[C@]43C)[C@@H]12 [Example 4, 3,3-dimethyl-4-oxo-4-((1R,3aS,5aR,5bR,7aR,9S,11aR,13aR,13bR)-5a,5b,8,8,11a-pentamethyl-3a-(2-morpholinoethylamino)-1-(prop-1-en-2-yl)icosahydro-1H-cyclopenta[a]chrysen-9-yloxy)butanoic acid] has an EC50 of less than 0.1 µM.
